According to patent publication EP2808337A1, “(E)-3-Aryl-3-oxoprop-1-enyl-2-phosphonic acid and its derivatives, methods for their preparation and their use” (Centrum Badan Molekularnych I Makromolekularnych Pan, priority 2013, dated 2014):

Key:
[1] = tested on: DNA plasmid pcDNA 3.1 HisC (8.2 kb); test: Digestion of plasmid DNA with restriction enzyme Bam H1 after incubation with compounds (agarose gel electrophoresis); format: biochemical; conditions: compound 2 or 20 µM, overnight at 37°C with 0.6 µg plasmid, then BamH1 2U/sample for 3 hours at 37°C; gel not shown
Experimental: The impact of compounds 1a and 1b has been tested on the digestion of DNA plasmid pcDNA 3.1 HisC (8.2 kb) with restriction enzyme Bam H1.
1. For this purpose, pcDNA 3.1 HisC plasmid DNA (0.6 µg) was dissolved in 1×BamH1 buffer and incubated overnight at 37°C with the following reference or test compounds:
The concentration of the reference and test compounds in each sample was 2 or 20 µM.
2. After overnight incubation, the reaction mixture was digested with BamH1 restriction enzyme (2U/sample) for 3 hours at 37°C. The total volume of the samples was 10 µL.
3. The reaction products were applied on 1% agarose gel and electrophoresis was performed in TAE buffer.

[2] = tested on: synthetic DNA duplex (23 nt- 5'TCTTCAAGAATTCAGGTCCTGAT 3'); test: Circular dichroism (CD) spectra of synthetic DNA duplex with test compounds; format: binding; conditions: immediately after addition; DNA duplex 2µM, compound 20µM, DMSO 0.2%, PBS, 23°C, 200-320 nm; Figure 1
Experimental: The ability of the test compounds 1a and 1b to interact with DNA was tested by the circular dichroism (CD) technique.
1. For this purpose, samples were prepared in PBS buffer containing: […] of synthetic DNA duplex (23 nt- 5'TCTTCAAGAATTCAGGTCCTGAT 3') or DNA of bovine thymus (0.2 mg/ml) and test compounds at a concentration of 20µM or 40µM for synthetic DNA duplex sample and thymus DNA sample, respectively. The samples contained 0.2% or 0.4% DMSO (for synthetic DNA duplex sample and thymus DNA sample, respectively), which is a solvent of the test compounds.
2. CD spectra (in the range from 200 nm to 320 nm) were recorded immediately after addition of the test compounds as well as after 1.5 h incubation. The measurement was carried out at 23°C in a quartz cuvette (optical path length 0.5 cm) using a spectroscope CD6 (Jobin-Yvon, France).
3. CD spectra of DNA incubated with the test compounds were compared with the control spectrum (spectrum was recorded for a sample of DNA (2µM or 0.2 mg/ml) in the presence of DMSO (final concentration of 0.2% or 0.4%).

Row | Compound | interaction with plasmid DNA: resistance to digestion by the endonucleolytic enzyme Bam H1 [1] | changes of CD spectrum of duplex DNA compared to control (duplex DNA + DMSO) [2]
1 | COc1cccc2c1C(=O)c1c(O)c3c(c(O)c1C2=O)C[C@@](O)(C(C)=O)C[C@@H]3O[C@H]1C[C@H](N)[C@H](O)[C@H](C)O1 [Daunorubicin, reference compound] | increasing its resistance to digestion | changing significantly its structure
2 | O=C(/C(=C/c1ccc2ccc3cccc4ccc1c2c34)P(=O)(O)O)c1ccc2c(c1)OCO2 [compound 1b, (Z)-3-(benzo[d][1,3]dioxol-5-yl)-1-(pyrene-1-yl)-3-oxoprop-1-en-2-ylphosphonic acid] | increasing its resistance to digestion | changes compared to the control sample
3 | COP(=O)(OC)/C(=C/c1ccc2ccc3cccc4ccc1c2c34)C(=O)c1ccc2c(c1)OCO2 [compound 1a] | increasing its resistance to digestion | changes compared to the control sample
